In the NIST ThermoML archive (doi:10.1021/je050031f):

Experiment: xn = mol fraction of the nth substance listed
Settings: 100.8 kPa, Liquid

CC1CCCCC1 [methylcyclohexane] + CCO
Settings | mass density, 288.15 K [kg/m3] | mass density, 298.15 K [kg/m3] | mass density, 308.15 K [kg/m3] | viscosity, 288.15 K [mPa·s] | viscosity, 298.15 K [mPa·s] | viscosity, 308.15 K [mPa·s]
x2 = 0 | 773.4 | 765 | 756.3 | 0.784 | 0.685 | 0.6
x2 = 0.05 | 773.4 | 764.6 | 755.8 | 0.771 | 0.674 | 0.589
x2 = 0.1 | 773.4 | 764.7 | 755.7 | 0.769 | 0.67 | 0.588
x2 = 0.15 | 773.7 | 764.8 | 755.8 | 0.77 | 0.667 | 0.585
x2 = 0.2 | 774 | 765.1 | 756.1 | 0.779 | 0.673 | 0.588
x2 = 0.25 | 774.3 | 765.4 | – | 0.793 | 0.681 | –
x2 = 0.3 | 774.7 | 765.8 | – | 0.811 | 0.694 | –
x2 = 0.35 | 775.1 | 766.2 | – | 0.831 | 0.707 | –
x2 = 0.4 | 775.7 | 766.8 | – | 0.853 | 0.722 | –
x2 = 0.45 | 776.3 | 767.4 | – | 0.877 | 0.739 | –
x2 = 0.5 | 777 | 768.1 | – | 0.902 | 0.757 | –
x2 = 0.55 | 777.8 | 768.9 | – | 0.928 | 0.778 | –
x2 = 0.6 | 778.7 | 769.8 | – | 0.955 | 0.799 | –
x2 = 0.65 | 779.6 | 770.8 | – | 0.983 | 0.82 | –
x2 = 0.7 | 780.8 | 772 | – | 1.012 | 0.843 | –
x2 = 0.75 | 782.1 | 773.4 | – | 1.043 | 0.867 | –
x2 = 0.8 | 783.6 | 774.9 | – | 1.077 | 0.894 | –
x2 = 0.85 | 785.4 | 776.7 | – | 1.114 | 0.926 | –
x2 = 0.9 | 787.7 | 779 | – | 1.164 | 0.971 | –
x2 = 0.95 | 790.4 | 781.8 | – | 1.225 | 1.021 | –
